Data taken from ChEMBL document CHEMBL1201862, “PubChem BioAssay data set” (2004).
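Values below derive from 48-hour exposures of cells grown in 96-well plates, with endpoints linearly interpolated between the two concentrations bracketing the appropriate inhibition level. Abbreviation: GI50, concentration required for 50% inhibition of growth.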 Calls of active or inactive are those of the source. Cut-off read from the data, not from the text of the source: active = GI50 up to about 1.1 µM and inactive = higher.

Columns and labels:
Assay in all cases: growth of human tumour cells (NCI), 48 h
786-0 = tested on: 786-0
A549 = tested on: A549
DMS-114 = tested on: DMS-114
HT-29 = tested on: HT-29
KM-20L2 = tested on: KM-20L2
KM12 = tested on: KM12
MCF7 = tested on: MCF7
MOLT-4 = tested on: MOLT-4
NCI-H23 = tested on: NCI-H23
OVCAR-4 = tested on: OVCAR-4
SF-295 = tested on: SF-295
SK-MEL-28 = tested on: SK-MEL-28
SK-MEL-2 = tested on: SK-MEL-2
SK-OV-3 = tested on: SK-OV-3
SN12C = tested on: SN12C
SNB-78 = tested on: SNB-78
SR = tested on: SR
SW-620 = tested on: SW-620
UACC-257 = tested on: UACC-257
UO-31 = tested on: UO-31

Measured: GI50

O=C(O)c1cc2c(s1)C(=O)c1sccc1C2=O
inactive: 786-0 8340 nM | A549 4250 nM | DMS-114 3340 nM | HT-29 5640 nM | KM-20L2 19200 nM | KM12 8070 nM | MCF7 2800 nM | MOLT-4 8710 nM | NCI-H23 2200 nM | OVCAR-4 6700 nM | SF-295 2260 nM | SK-MEL-28 1900 nM | SK-MEL-2 2230 nM | SK-OV-3 20600 nM | SN12C 2730 nM | SR 2810 nM | SW-620 2310 nM | UACC-257 3510 nM | UO-31 5980 nM
active: SNB-78 264 nM

CC(C)CCCCCCCCCCCCC(=O)NCC(=O)NC1C(C)OC(Nc2[nH]cnc3ncnc2-3)C(O)C1O (stereo not given)
active: 786-0 0.491 nM | A549 1.28 nM | DMS-114 < 31.6 nM | HT-29 1.25 nM | KM-20L2 < 10 nM | KM12 0.341 nM | MCF7 < 10 nM | MOLT-4 1.02 nM | NCI-H23 5.36 nM | OVCAR-4 0.98 nM | SF-295 2.34 nM | SK-MEL-28 < 10 nM | SK-MEL-2 3.85 nM | SK-OV-3 < 10 nM | SN12C 2.14 nM | SNB-78 0.646 nM | SR 1.53 nM | SW-620 1.01 nM | UACC-257 < 10 nM | UO-31 0.381 nM
